Results as given in patent US9051591B2, “Bacterium of enterobacteriaceae family producing L-aspartic acid or L-aspartic acid-derived metabolites and a method for producing L-aspartic acid or L-aspartic acid-derived metabolites” (AJINOMOTO CO., INC., priority 2010, dated 2015).
Values joined by “and” are separate entries in the source; they are usually repeats but may differ in a detail not shown here. Equal values may be shown once. Read-outs that look alike come from different tables or passages of the source.

Tests used:
[1] = biological target: T1, ADH (Polaromonas sp.) (Polaromonas sp., UniProt Q126F5); assay: Screening of substrate specificity, ADH; conditions: 20 mM substrate; for Amination activity, ADH: relative to oxaloacetate, […] NADH, pH 9; for Deamination activity, ADH: relative to aspartate, 2 mM NAD^+, pH 9.8
T1 sequence (Q126F5 1-267): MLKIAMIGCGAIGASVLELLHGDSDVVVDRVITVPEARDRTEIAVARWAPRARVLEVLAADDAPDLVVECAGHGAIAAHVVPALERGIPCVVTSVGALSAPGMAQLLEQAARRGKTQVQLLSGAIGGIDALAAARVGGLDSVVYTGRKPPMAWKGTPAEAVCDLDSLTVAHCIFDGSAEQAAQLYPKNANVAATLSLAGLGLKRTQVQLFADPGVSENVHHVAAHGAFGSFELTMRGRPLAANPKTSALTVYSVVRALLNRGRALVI

[2] = test system: ADH-Re; assay: Screening of substrate specificity, ADH-Re; conditions: 20 mM substrate; for Amination activity, ADH-Re: relative to oxaloacetate, […] NADH, pH 9; for Deamination activity, ADH-Re: relative to aspartate, 2 mM NAD^+, pH 9.8
[3] = biological target: T2, purified ADH (Polaromonas sp.) (Polaromonas sp., UniProt Q126F5); assay: Screening of alternative substrates for purified ADH; conditions: 10 mM, 29° C.; for ability to replace oxaloacetate in forward reaction: […] NADH, 50 mM NH4Cl; for ability to replace aspartic acid in reverse reaction: 1 mM NAD^+
T2 sequence (Q126F5 1-267): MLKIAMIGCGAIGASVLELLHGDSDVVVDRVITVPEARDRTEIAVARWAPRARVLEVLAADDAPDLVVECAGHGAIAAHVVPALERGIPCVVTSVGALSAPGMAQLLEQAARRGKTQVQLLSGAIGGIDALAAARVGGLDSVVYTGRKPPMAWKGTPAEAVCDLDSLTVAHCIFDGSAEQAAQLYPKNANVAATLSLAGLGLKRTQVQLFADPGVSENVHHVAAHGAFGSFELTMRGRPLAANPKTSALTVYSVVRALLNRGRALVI

[4] = biological target: T3, Polaromonas sp. ADH (Polaromonas sp., UniProt Q126F5); conditions: Oxaloacetate reductive amination; Michaelis-Menten plots
T3 sequence (Q126F5 1-267): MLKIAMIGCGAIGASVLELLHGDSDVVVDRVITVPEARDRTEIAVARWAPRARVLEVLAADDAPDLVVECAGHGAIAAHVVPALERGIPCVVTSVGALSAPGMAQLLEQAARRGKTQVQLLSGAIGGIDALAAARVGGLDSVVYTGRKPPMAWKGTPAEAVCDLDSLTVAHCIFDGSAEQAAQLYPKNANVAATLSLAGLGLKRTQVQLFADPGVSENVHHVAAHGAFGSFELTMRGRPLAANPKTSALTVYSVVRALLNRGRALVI

[5] = biological target: T4, Ralstonia eutropha ADH-Re (Cupriavidus necator, UniProt Q0K391)
T4 sequence (Q0K391 with tags, fused parts or gaps): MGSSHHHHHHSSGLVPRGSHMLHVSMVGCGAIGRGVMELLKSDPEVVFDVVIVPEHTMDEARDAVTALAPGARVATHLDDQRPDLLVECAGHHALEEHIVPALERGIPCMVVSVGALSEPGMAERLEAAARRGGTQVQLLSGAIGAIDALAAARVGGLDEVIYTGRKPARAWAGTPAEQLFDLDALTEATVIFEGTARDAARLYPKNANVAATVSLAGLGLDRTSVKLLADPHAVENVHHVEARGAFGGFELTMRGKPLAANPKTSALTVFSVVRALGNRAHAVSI

[6] = biological target: T5, Polaromonas sp. aspartate dehydrogenase (Polaromonas sp., UniProt Q126F5); assay: Regulatory properties of the ADH; conditions: addition of 1 mM; for effect on ADH activity in forward and reverse reactions: 29° C., pH 9.8
T5 sequence (Q126F5 1-267): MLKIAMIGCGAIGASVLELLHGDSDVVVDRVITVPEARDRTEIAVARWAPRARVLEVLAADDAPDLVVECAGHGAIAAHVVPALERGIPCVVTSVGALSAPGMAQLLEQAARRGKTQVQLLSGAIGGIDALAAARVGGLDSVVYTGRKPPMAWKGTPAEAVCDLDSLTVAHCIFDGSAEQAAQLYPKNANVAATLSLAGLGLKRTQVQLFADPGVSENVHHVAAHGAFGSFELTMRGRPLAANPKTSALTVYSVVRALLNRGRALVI

[7] = biological target: Bradyrhizobium japonicum ADH-Bj (Bradyrhizobium diazoefficiens, UniProt Q89FY1); assay: Kinetic parameters of the Bradyrhizobium japonicum ADH-Bj; conditions: Oxaloacetate reductive amination
[8] = biological target: Rhodopseudomonas palustris ADH1-Rp (Rhodopseudomonas palustris, UniProt Q2J3V1); assay: Kinetic parameters of the Rhodopseudomonas palustris AspDH 1; conditions: Oxaloacetate reductive amination
[9] = test system: ADH-Bj; assay: Screening of substrate specificity, ADH-Bj; conditions: relative to aspartate; 20 mM substrate, 2 mM NADP^+, pH 9.8
[10] = test system: ADH1-Rp; assay: Screening of substrate specificity, ADH1-Rp; conditions: relative to aspartate; 20 mM substrate, 2 mM NADP^+, pH 9.8
[11] = substrate: NC(=O)c1ccc[n+]([C@@H]2O[C@H](COP(=O)([O-])OP(=O)(O)OC[C@H]3O[C@@H](n4cnc5c(N)ncnc54)[C@H](O)[C@@H]3O)[C@@H](O)[C@H]2O)c1; assay: purified protein, by the assay type
[12] = substrate: O=C(O)CC(=O)C(=O)O; assay: purified protein, by the assay type; conditions: other: Oxaloacetate reductive amination; Michaelis-Menten plots
[13] = substrate: N[C@@H](CC(=O)O)C(=O)O; assay: purified protein, by the assay type; conditions: other: Aspartate oxidative deamination; Michaelis-Menten plots
[14] = Oxaloacetate reductive amination, Michaelis-Menten plots
[15] = other: Aspartate oxidative deamination
[16] = other: Aspartic acid oxidative deamination, Michaelis-Menten plots
[17] = other: Aspartate oxidative deamination, Michaelis-Menten plots
[18] = other: Aspartic acid oxidative deamination

## CC(C)C(=O)C(=O)O [ketoisovaleriate]
[1]
  Amination activity, ADH: na (no activity (<0.2%))
[2]
  Amination activity, ADH-Re: na (no activity (<0.2%))
[3]
  ability to replace oxaloacetate in forward reaction: No activity

## Cl.N [NH4Cl]
[4]
  Km: 33 mM
  Vmax: 83 ± 3 µmol/min/mg
  kcat: 2280 ± 80 min⁻¹
[5]; [14]
  Km: 12 mM and 11.9 mM
  Vmax: 113 ± 4 µmol/min/mg
  kcat: 3400 ± 120 min⁻¹
[6]
  inhibition of the reverse reaction of aspartic acid deamination: did not significantly inhibit
[7]
  Km: 4.3 mM and 4 mM
  Vmax: 48 ± 2 µmol/min/mg
  kcat: 1480 ± 50 min⁻¹
[8]
  Km: 11 mM and 11.3 mM
  Vmax: 20.2 ± 0.6 µmol/min/mg
  kcat: 620 ± 20 min⁻¹

## CC[C@H](C)[C@H](N)C(=O)O [isoleucine]
[3]
  ability to replace aspartic acid in reverse reaction: No activity

## O=C(O)CCC(=O)C(=O)O [α-ketoglutarate]
[2]
  Amination activity, ADH-Re: na (no activity (<0.2%))

## CC(C)[C@H](N)C(=O)O [valine]
[3]
  ability to replace aspartic acid in reverse reaction: No activity

## N[C@@H](CCC(=O)O)C(=O)O [Glutamate]
[6]
  effect on ADH activity in forward and reverse reactions: not significantly affected
[1]
  Deamination activity, ADH: na (no activity (<2%))
[2]
  Deamination activity, ADH-Re: na (no activity (<2%))
[9]
  Deamination activity, ADH-Bj: 5.5 ± 1.1%
[10]
  Deamination activity, ADH1-Rp: 4.5 ± 0.4%
[3]
  ability to replace aspartic acid in reverse reaction: No activity

## C[C@H](N)C(=O)O [Alanine]
[1]
  Deamination activity, ADH: na (no activity (<2%))
[2]
  Deamination activity, ADH-Re: na (no activity (<2%))
[9]
  Deamination activity, ADH-Bj: na (no activity (<2%))
[10]
  Deamination activity, ADH1-Rp: na (no activity (<2%))
[3]
  ability to replace aspartic acid in reverse reaction: No activity

## NC(=O)C[C@H](N)C(=O)O [asparagine]
[3]
  ability to replace aspartic acid in reverse reaction: No activity

## O=C(O)CC(=O)C(=O)O [Oxaloacetate]
[1]
  Amination activity, ADH: 100 ± 3%

## CC(=O)SCCNC(=O)CCNC(=O)[C@H](O)C(C)(C)COP(=O)(O)OP(=O)(O)OC[C@H]1O[C@@H](n2cnc3c(N)ncnc32)[C@H](O)[C@@H]1OP(=O)(O)O [acetyl-coenzyme A]
[6]
  effect on ADH activity in forward and reverse reactions: not significantly affected

## NADPH
[5]; amination, summary range over Hill and Michaelis-Menten fits
  Km: 0.39 to 0.9 mM

## CC(C)(COP(=O)(O)OP(=O)(O)OC[C@H]1O[C@@H](n2cnc3c(N)ncnc32)[C@H](O)[C@@H]1OP(=O)(O)O)[C@@H](O)C(=O)NCCC(=O)NCCS [coenzyme A]
[6]
  effect on ADH activity in forward and reverse reactions: not significantly affected

## CCC(N)C(=O)O (stereo not drawn) [α-aminobutyrate]
[3]
  ability to replace aspartic acid in reverse reaction: No activity

## O=C(O)CC(O)C(=O)O (centres unmarked) [malate]
[6]
  effect on ADH activity in forward and reverse reactions: not significantly affected

## CCC(=O)C(=O)O [α-ketobutyrate]
[1]
  Amination activity, ADH: na (no activity (<0.2%))
[2]
  Amination activity, ADH-Re: na (no activity (<0.2%))
[3]
  ability to replace oxaloacetate in forward reaction: No activity

## CC(=O)C(=O)O [pyruvate]
[1]
  Amination activity, ADH: na (no activity (<0.2%))
[3]
  ability to replace oxaloacetate in forward reaction: No activity

## CCC(C)C(=O)C(=O)O (centres unmarked) [ketomethylvaleriate]
[1]
  Amination activity, ADH: na (no activity (<0.2%))
[2]
  Amination activity, ADH-Re: na (no activity (<0.2%))
[3]
  ability to replace oxaloacetate in forward reaction: No activity

B1: Bradyrhizobium japonicum ADH-Bj (Bradyrhizobium diazoefficiens USDA 110) (protein)
chain: MGSSHHHHHHSSGDRRWKVMTDQTASSELRVAIAGLGSIGTKIAAALDQGEGLTLSAVAVRDPAKHQAFLNGLRRPPQVLPIDQLGEAADIVVECAPSSQLRAIVEPAVKRGKAAVVVSVGGLLDNFDLVDLARANGGRIIVPTGALIGLDAVNAAVIGTIHSVKMVTRKPIDGLKGAPFIVHNNIDIDTLREPLKLFEGTAREAAKGFPANLNVAVALSLAGVGPDRTSVQIWADPTVTRNVHRIEVEADSARFSMSIENIPSENPKTGLITALSVIALLRKQRATLCVGT
[11]; [15]
  Km: 10 ± 3 mM
  Vmax: 6.5 µmol/min/mg
  kcat: 3.33 ± 0.5 s⁻¹
  kcat/Km: 333 M⁻¹ s⁻¹

B2: Polaromonas sp. ADH (Polaromonas sp. JS666) (protein)
chain: MLKIAMIGCGAIGASVLELLHGDSDVVVDRVITVPEARDRTEIAVARWAPRARVLEVLAADDAPDLVVECAGHGAIAAHVVPALERGIPCVVTSVGALSAPGMAQLLEQAARRGKTQVQLLSGAIGGIDALAAARVGGLDSVVYTGRKPPMAWKGTPAEAVCDLDSLTVAHCIFDGSAEQAAQLYPKNANVAATLSLAGLGLKRTQVQLFADPGVSENVHHVAAHGAFGSFELTMRGRPLAANPKTSALTVYSVVRALLNRGRALVI
[11]; [16]
  Km: 0.424 ± 0.010 mM
  Vmax: 32 µmol/min/mg
  kcat: 14.68 ± 0.1 s⁻¹
[12]
  Km: 2.2 ± 0.3 mM
  Vmax: 74 µmol/min/mg
  kcat: 33.8 ± 1.5 s⁻¹

B3: Ralstonia eutropha ADH-Re (Cupriavidus necator H16) (protein)
chain: MGSSHHHHHHSSGLVPRGSHMLHVSMVGCGAIGRGVMELLKSDPEVVFDVVIVPEHTMDEARDAVTALAPGARVATHLDDQRPDLLVECAGHHALEEHIVPALERGIPCMVVSVGALSEPGMAERLEAAARRGGTQVQLLSGAIGAIDALAAARVGGLDEVIYTGRKPARAWAGTPAEQLFDLDALTEATVIFEGTARDAARLYPKNANVAATVSLAGLGLDRTSVKLLADPHAVENVHHVEARGAFGGFELTMRGKPLAANPKTSALTVFSVVRALGNRAHAVSI
[11]; [17]
  Km: 1.7 ± 0.4 mM
  Vmax: 37 µmol/min/mg
  kcat: 18.7 ± 1.5 s⁻¹
[13]
  Km: 13 ± 3 mM
  Vmax: 23 µmol/min/mg
  kcat: 11.5 ± 1 s⁻¹
  kcat/Km: 833 M⁻¹ s⁻¹
[12]
  Km: 3.3 ± 0.4 mM
  kcat: 58.3 ± 2.33 s⁻¹

B4: Rhodopseudomonas palustris ADH1-Rp (Rhodopseudomonas palustris HaA2) (protein)
chain: MRSGRAPQRVAIAGLGAIGKAIARELDRGLDGLTLGAVASGDPEKHRAFLDGLRTTPPVVPLDQLHAHADLVIEAAPSRLLRAIVEPFVSRGRTAIVLSAAALLQNEDLIDLANLNGGQIIVPTGALIGLDAVTAAAVGTIHSVRMITRKPVDGLRGAPFIVDNGIDLDGLREPLKLFEGTAREAGKGFPANLNVAVALSLAGIGPDRTMVEIWADPGVTRNTHRIEVDADSARFAMTIENVPSDNPRTGLITPLSVIALLRKQSAALRVGT
[11]; [18]
  Km: 7.0 ± 0.3 mM
  Vmax: 3.11 µmol/min/mg
  kcat: 1.58 ± 0.0333 s⁻¹
  kcat/Km: 227 ± 15 M⁻¹ s⁻¹
